Assays:
Athelia rolfsii [1] = test: microbe, parasite or virus in culture; assay type: functional; settings: Agroathelia rolfsii, read-out: GI
Description: Fungitoxic activity against Athelia rolfsii assessed as mycelial growth inhibition at 100 ppm after 4 to 5 days by agar dilution method

Pythium [2] = test: microbe, parasite or virus in culture; assay type: functional; settings: read-out: GI
Description: Fungitoxic activity against Pythium sp. assessed as mycelial growth inhibition at 100 ppm after 4 to 5 days by agar dilution method

Athelia rolfsii [3] = test: Fungitoxic activity against Athelia rolfsii assessed as mycelial growth inhibition at 10 ppm after 4 to 5 days by agar dilution method; assay type: functional; settings: Agroathelia rolfsii; read-out: GI
[4] = tested on: Brassica rapa subsp. chinensis; test: whole plant or invertebrate; assay type: functional; settings: 72 h, read-out: GI
Description: Phytotoxicity against Brassica rapa subsp. chinensis assessed as growth inhibition of radicle at 100 ppm treated to seeds after 3 days

Pythium [5] = test: Fungitoxic activity against Pythium sp. assessed as mycelial growth inhibition at 10 ppm after 4 to 5 days by agar dilution method; settings: read-out: GI
[6] = tested on: Brassica rapa subsp. chinensis; test: whole plant or invertebrate; assay type: functional; settings: 72 h, read-out: GI; remark: listed apart in the source
Description: Phytotoxicity against Brassica rapa subsp. chinensis assessed as growth inhibition of hypocotyl at 100 ppm treated to seeds after 3 days

Question: `CCCNC(=O)/C=C/c1ccc(C(C)C)cc1` was tested. Which inhibition of growth at 100 ppm (Athelia rolfsii [1]) did it give?
Answer: Its inhibition of growth at 100 ppm is 88%.

Question: And the inhibition of growth at 100 ppm (Pythium [2])?
Answer: Its inhibition of growth at 100 ppm is 84%.

Question: And the inhibition of growth at 10 ppm (Athelia rolfsii [3])?
Answer: The inhibition of growth at 10 ppm was 28%.

Question: And the inhibition of growth at 100 ppm [4]?
Answer: Its inhibition of growth at 100 ppm is 52%.

Question: What about the inhibition of growth at 10 ppm (Pythium [5]) of the same molecule?
Answer: The inhibition of growth at 10 ppm was 41%.

Question: And the inhibition of growth at 100 ppm [6]?
Answer: The inhibition of growth at 100 ppm was 30%.

Question: How did the inhibition of growth at 100 ppm (Athelia rolfsii [1]) turn out when `Cc1cccc(C)c1NC(=O)/C=C/c1ccccc1` was run?
Answer: Its inhibition of growth at 100 ppm is 13%.

Question: And the inhibition of growth at 100 ppm (Pythium [2])?
Answer: Its inhibition of growth at 100 ppm is 31%.

Question: What about the inhibition of growth at 100 ppm [4] of the same molecule?
Answer: The inhibition of growth at 100 ppm was 0%.

Question: And the inhibition of growth at 100 ppm [6]?
Answer: The inhibition of growth at 100 ppm was 0%.

Question: How did the inhibition of growth at 100 ppm (Athelia rolfsii [1]) turn out when `CCc1ccccc1NC(=O)/C=C/c1ccccc1` was run?
Answer: Its inhibition of growth at 100 ppm is 19%.

Question: What about the inhibition of growth at 100 ppm (Pythium [2]) of the same molecule?
Answer: The inhibition of growth at 100 ppm was 26%.

Question: And the inhibition of growth at 100 ppm [4]?
Answer: The inhibition of growth at 100 ppm was 21%.

Question: What about the inhibition of growth at 100 ppm [6] of the same molecule?
Answer: The inhibition of growth at 100 ppm was 0%.

Question: For `Cc1ccc(NC(=O)/C=C/c2ccccc2)c(C)c1`, which inhibition of growth at 100 ppm (Athelia rolfsii [1]) is on record?
Answer: The inhibition of growth at 100 ppm was 5%.

Question: What about the inhibition of growth at 100 ppm (Pythium [2]) of the same molecule?
Answer: The inhibition of growth at 100 ppm was 4%.

Question: And the inhibition of growth at 100 ppm [4]?
Answer: The inhibition of growth at 100 ppm was 0%.

Question: And the inhibition of growth at 100 ppm [6]?
Answer: Its inhibition of growth at 100 ppm is 0%.

Question: How did the inhibition of growth at 100 ppm (Athelia rolfsii [1]) turn out when `Cc1cccc(NC(=O)/C=C/c2ccccc2)c1C` was run?
Answer: The inhibition of growth at 100 ppm was 12%.

Question: What about the inhibition of growth at 100 ppm (Pythium [2]) of the same molecule?
Answer: The inhibition of growth at 100 ppm was 16%.

Question: What about the inhibition of growth at 100 ppm [4] of the same molecule?
Answer: The inhibition of growth at 100 ppm was 56%.

Question: And the inhibition of growth at 100 ppm [6]?
Answer: The inhibition of growth at 100 ppm was 32%.

Question: What does the source list for `O=C(/C=C/c1ccc(Cl)cc1Cl)OCCOc1ccccc1`?
Answer: inhibition of growth at 100 ppm (Athelia rolfsii [1]): 72%; inhibition of growth at 100 ppm (Pythium [2]): 59%; inhibition of growth at 10 ppm (Athelia rolfsii [3]): 14%; inhibition of growth at 100 ppm [4]: 8%; inhibition of growth at 10 ppm (Pythium [5]): 14%; inhibition of growth at 100 ppm [6]: 33%

Question: Which inhibition of growth at 100 ppm (Athelia rolfsii [1]) does the source give for `CC(C)=CCC/C(C)=C/COC(=O)/C=C/c1ccc(Cl)cc1Cl` here?
Answer: Its inhibition of growth at 100 ppm is 30%.

Question: What about the inhibition of growth at 100 ppm (Pythium [2]) of the same molecule?
Answer: Its inhibition of growth at 100 ppm is 24%.

Question: And the inhibition of growth at 100 ppm [4]?
Answer: Its inhibition of growth at 100 ppm is 1%.

Question: And the inhibition of growth at 100 ppm [6]?
Answer: The inhibition of growth at 100 ppm was 26%.

Question: With `CCCCCNC(=O)/C=C/c1ccccc1` as the molecule, how does the inhibition of growth at 100 ppm (Athelia rolfsii [1]) read?
Answer: The inhibition of growth at 100 ppm was 87%.

Question: And the inhibition of growth at 100 ppm (Pythium [2])?
Answer: The inhibition of growth at 100 ppm was 78%.

Question: What about the inhibition of growth at 10 ppm (Athelia rolfsii [3]) of the same molecule?
Answer: The inhibition of growth at 10 ppm was 18%.

Question: And the inhibition of growth at 100 ppm [4]?
Answer: Its inhibition of growth at 100 ppm is 76%.

Question: And the inhibition of growth at 10 ppm (Pythium [5])?
Answer: Its inhibition of growth at 10 ppm is 23%.

Question: And the inhibition of growth at 100 ppm [6]?
Answer: The inhibition of growth at 100 ppm was 60%.

Question: How did the inhibition of growth at 100 ppm (Athelia rolfsii [1]) turn out when `CCCCCCCCCCNC(=O)/C=C/c1ccccc1` was run?
Answer: Its inhibition of growth at 100 ppm is 23%.

Question: And the inhibition of growth at 100 ppm (Pythium [2])?
Answer: The inhibition of growth at 100 ppm was 27%.

Question: And the inhibition of growth at 100 ppm [4]?
Answer: Its inhibition of growth at 100 ppm is 15%.

Question: And the inhibition of growth at 100 ppm [6]?
Answer: The inhibition of growth at 100 ppm was 10%.

Question: `CCc1cccc(NC(=O)/C=C/c2ccccc2)c1` was tested. Which inhibition of growth at 100 ppm (Athelia rolfsii [1]) did it give?
Answer: Its inhibition of growth at 100 ppm is 53%.

Question: And the inhibition of growth at 100 ppm (Pythium [2])?
Answer: Its inhibition of growth at 100 ppm is 74%.

Question: What about the inhibition of growth at 10 ppm (Athelia rolfsii [3]) of the same molecule?
Answer: Its inhibition of growth at 10 ppm is 35%.

Question: And the inhibition of growth at 100 ppm [4]?
Answer: The inhibition of growth at 100 ppm was 66%.

Question: And the inhibition of growth at 10 ppm (Pythium [5])?
Answer: Its inhibition of growth at 10 ppm is 31%.

Question: What about the inhibition of growth at 100 ppm [6] of the same molecule?
Answer: Its inhibition of growth at 100 ppm is 2%.

Question: Which inhibition of growth at 100 ppm (Athelia rolfsii [1]) does the source give for `CCc1ccc(NC(=O)/C=C/c2ccccc2)cc1` here?
Answer: The inhibition of growth at 100 ppm was 53%.

Question: What about the inhibition of growth at 100 ppm (Pythium [2]) of the same molecule?
Answer: The inhibition of growth at 100 ppm was 34%.

Question: And the inhibition of growth at 100 ppm [4]?
Answer: Its inhibition of growth at 100 ppm is 20%.

Question: What about the inhibition of growth at 100 ppm [6] of the same molecule?
Answer: The inhibition of growth at 100 ppm was 10%.

Question: `CC(C)=CCC/C(C)=C/COC(=O)/C=C/c1ccc(C(C)C)cc1` was tested. Which inhibition of growth at 100 ppm (Athelia rolfsii [1]) did it give?
Answer: The inhibition of growth at 100 ppm was 88%.

Question: What about the inhibition of growth at 100 ppm (Pythium [2]) of the same molecule?
Answer: The inhibition of growth at 100 ppm was 72%.

Question: What about the inhibition of growth at 10 ppm (Athelia rolfsii [3]) of the same molecule?
Answer: The inhibition of growth at 10 ppm was 21%.

Question: What about the inhibition of growth at 100 ppm [4] of the same molecule?
Answer: Its inhibition of growth at 100 ppm is 0%.

Question: And the inhibition of growth at 10 ppm (Pythium [5])?
Answer: Its inhibition of growth at 10 ppm is 8%.

Question: And the inhibition of growth at 100 ppm [6]?
Answer: Its inhibition of growth at 100 ppm is 30%.

Question: Which inhibition of growth at 100 ppm (Athelia rolfsii [1]) does the source give for `Cc1ccc(OC(=O)/C=C/c2ccc(Cl)cc2)c(C(C)C)c1` here?
Answer: Its inhibition of growth at 100 ppm is 41%.

Question: And the inhibition of growth at 100 ppm (Pythium [2])?
Answer: The inhibition of growth at 100 ppm was 13%.

Question: What about the inhibition of growth at 100 ppm [4] of the same molecule?
Answer: Its inhibition of growth at 100 ppm is 18%.

Question: And the inhibition of growth at 100 ppm [6]?
Answer: Its inhibition of growth at 100 ppm is 41%.

Question: Which results are given for `Cc1ccc(C(C)C)c(OC(=O)/C=C/c2ccc(Cl)cc2)c1`?
Answer: inhibition of growth at 100 ppm (Athelia rolfsii [1]): 39%; inhibition of growth at 100 ppm (Pythium [2]): 6%; inhibition of growth at 100 ppm [4]: 24%; inhibition of growth at 100 ppm [6]: 36%

Question: With `O=C(/C=C/c1ccc(Cl)cc1)OCCOc1ccccc1` as the molecule, how does the inhibition of growth at 100 ppm (Athelia rolfsii [1]) read?
Answer: The inhibition of growth at 100 ppm was 83%.

Question: What about the inhibition of growth at 100 ppm (Pythium [2]) of the same molecule?
Answer: The inhibition of growth at 100 ppm was 54%.

Question: And the inhibition of growth at 10 ppm (Athelia rolfsii [3])?
Answer: The inhibition of growth at 10 ppm was 16%.

Question: And the inhibition of growth at 100 ppm [4]?
Answer: The inhibition of growth at 100 ppm was 0%.

Question: And the inhibition of growth at 10 ppm (Pythium [5])?
Answer: Its inhibition of growth at 10 ppm is 9%.

Question: And the inhibition of growth at 100 ppm [6]?
Answer: Its inhibition of growth at 100 ppm is 30%.

Question: What does the source list for `CC(C)=CCC/C(C)=C/COC(=O)/C=C/c1ccc(Cl)cc1`?
Answer: inhibition of growth at 100 ppm (Athelia rolfsii [1]): 94%; inhibition of growth at 100 ppm (Pythium [2]): 86%; inhibition of growth at 10 ppm (Athelia rolfsii [3]): 17%; inhibition of growth at 100 ppm [4]: 48%; inhibition of growth at 10 ppm (Pythium [5]): 9%; inhibition of growth at 100 ppm [6]: 41%

Question: `Cc1ccc(OC(=O)/C=C/c2ccc(Cl)cc2Cl)c(C(C)C)c1` was tested. Which inhibition of growth at 100 ppm (Athelia rolfsii [1]) did it give?
Answer: The inhibition of growth at 100 ppm was 67%.

Question: And the inhibition of growth at 100 ppm (Pythium [2])?
Answer: The inhibition of growth at 100 ppm was 15%.

Question: And the inhibition of growth at 10 ppm (Athelia rolfsii [3])?
Answer: The inhibition of growth at 10 ppm was 21%.

Question: And the inhibition of growth at 100 ppm [4]?
Answer: Its inhibition of growth at 100 ppm is 0%.

Question: What about the inhibition of growth at 100 ppm [6] of the same molecule?
Answer: The inhibition of growth at 100 ppm was 32%.

Question: Which results are given for `Cc1ccc(C(C)C)c(OC(=O)/C=C/c2ccc(Cl)cc2Cl)c1`?
Answer: inhibition of growth at 100 ppm (Athelia rolfsii [1]): 33%; inhibition of growth at 100 ppm (Pythium [2]): 29%; inhibition of growth at 100 ppm [4]: 0%; inhibition of growth at 100 ppm [6]: 33%

Question: With `Cc1ccc(OC(=O)/C=C/c2ccc(C(C)C)cc2)c(C(C)C)c1` as the molecule, how does the inhibition of growth at 100 ppm (Athelia rolfsii [1]) read?
Answer: Its inhibition of growth at 100 ppm is 24%.

Question: And the inhibition of growth at 100 ppm (Pythium [2])?
Answer: The inhibition of growth at 100 ppm was 15%.

Question: And the inhibition of growth at 100 ppm [4]?
Answer: Its inhibition of growth at 100 ppm is 28%.

Question: And the inhibition of growth at 100 ppm [6]?
Answer: The inhibition of growth at 100 ppm was 39%.

Question: For `Cc1ccc(C(C)C)c(OC(=O)/C=C/c2ccc(C(C)C)cc2)c1`, which inhibition of growth at 100 ppm (Athelia rolfsii [1]) is on record?
Answer: Its inhibition of growth at 100 ppm is 0%.

Question: What about the inhibition of growth at 100 ppm (Pythium [2]) of the same molecule?
Answer: Its inhibition of growth at 100 ppm is 2%.

Question: What about the inhibition of growth at 100 ppm [4] of the same molecule?
Answer: The inhibition of growth at 100 ppm was 30%.

Question: And the inhibition of growth at 100 ppm [6]?
Answer: The inhibition of growth at 100 ppm was 42%.

Question: What does the source list for `C=CCNC(=O)/C=C/c1ccccc1`?
Answer: inhibition of growth at 100 ppm (Athelia rolfsii [1]): 90%; inhibition of growth at 100 ppm (Pythium [2]): 52%; inhibition of growth at 10 ppm (Athelia rolfsii [3]): 6%; inhibition of growth at 100 ppm [4]: 64%; inhibition of growth at 10 ppm (Pythium [5]): 20%; inhibition of growth at 100 ppm [6]: 63%
